Earlier results as cited in patent US20200038413A1, “METHODS OF TREATING PARKINSON'S DISEASE USING AMINOSTEROL COMPOSITIONS” (Enterin, Inc., priority 2018, published 2020).
Where a name gives a salt, the structure may show the parent alone.

Key:
[1] = single and repeat intravenous administration, alone or in combination; cited from earlier work
PD population = conditions: short term placebo controlled trial, PD constipation; cited from earlier work

Compound	well tolerated dose [1]	proportion of those treated in whom effective (PD population)
CC(C)[C@@H](CC[C@@H](C)[C@H]1CC[C@H]2[C@@H]3[C@H](O)C[C@H]4C[C@@H](NCCCNCCCCN)CC[C@]4(C)[C@H]3CC[C@]12C)OS(=O)(=O)O [Squalamine dilactate salt]	at least 300 mg/m^2	–
CCCCC(F)(F)[C@@]1(O)CC[C@H]2[C@@H](CC(=O)[C@@H]2CCCCCCC(=O)O)O1 [Lubiprostone]	–	about 50%
